Consider 22 molecules from patent publication US20250002476A1, “AZOLE COMPOUNDS FOR CONTROLLING INVERTEBRATE PESTS” (FMC Corporation, priority 2021, published 2025).

The mortality is the percentage killed. Low values mean a weak lethal effect, high ones a strong lethal effect.

Holding throughout (format): in vivo
Data set [1] concerns silverleaf whitefly (Bemisia argentifolii (Bellows and Perring)). Description: Test F: control of silverleaf whitefly on sprayed soybean plant. The conditions noted are these: 288 h, pre-infested (oviposition), 12 days; for mortality at 250 ppm: sprayed at 250 ppm; for mortality at 50 ppm: sprayed at 50 ppm. Here is the method: (§1) Test compounds were formulated using a solution containing 10% acetone, 90% water and 300 ppm Activator 90@ non-ionic surfactant (Loveland Products, Loveland, Colorado, USA). The formulated compounds were applied in 1 mL of liquid through an atomized nozzle positioned 1.27 cm (0.5 inches) above the top of each test unit. Test compounds were sprayed at the rates indicated, and each test was replicated three times.
For evaluating control of silverleaf whitefly (Bemisia argentifolii (Bellows and Perring)) through contact and/or systemic means, each test unit consisted of a small open container with a 5-7 day old soybean plant inside. This was pre-infested by placing test units into cages containing adult whiteflies so that oviposition on the leaves could occur. The adults were removed from the plants with an air-blast nozzle, and the test units were capped. The test units were then stored 2 to 3 days before spraying.
Test compounds were formulated and sprayed at 250 and 50 ppm. After spraying, the test units were maintained in a growth chamber for 12 days at 23° C. and 70% relative humidity. Each test unit was then visually assessed for insect mortality.

Data set [2] deals with Corn Planthopper (Peregrinus maidis (Ashmead)). Nature of the data set: Test B: control of Corn Planthopper on sprayed corn plant. The following applies: 144 h, nymphs, 6 days; for mortality at 50 ppm: sprayed at 50 ppm; for mortality at 10 ppm: sprayed at 10 ppm; for mortality at 250 ppm: sprayed at 250 ppm. Here is the method:
as §1
For evaluating control of Corn Planthopper (Peregrinus maidis (Ashmead)) through contact and/or systemic means, the test unit consisted of a small open container with a 3-4-day-old corn (maize) plant inside. White sand was added to the top of the soil prior to application of the test compound.
Test compounds were formulated and sprayed at 250, 50 and 10 ppm. After spraying of the formulated test compound, the test units were allowed to dry for 1 h before they were post-infested with ˜15-20 nymphs (18-to-21-day-old). A black, screened cap was placed on the top of each test unit, and the test units were held for 6 days in a growth chamber at 22-24° C. and 50-70% relative humidity. Each test unit was then visually assessed for insect mortality.

Data set [3] deals with Green Peach Aphid (Myzus persicae (Sulzer)). Nature of the data set: Test D: control of Green Peach Aphid on sprayed radish plant. The conditions noted are these: 144 h, pre-infested, 6 days; for mortality at 50 ppm: sprayed at 50 ppm; for mortality at 250 ppm: sprayed at 250 ppm. Here is the method:
as §1
For evaluating control of Green Peach Aphid (Myzus persicae (Sulzer)) through contact and/or systemic means, the test unit consisted of a small open container with a 12-15-day-old radish plant inside. Prior to compound application, each test unit was pre-infested by placing on a leaf of the test plant 30-40 aphids on a piece of leaf excised from a culture plant (cut-leaf method). The aphids moved onto the test plant as the leaf piece desiccated. After pre-infestation, the soil of the test unit was covered with a layer of sand.
Test compounds were formulated and sprayed at 250 and 50 ppm. After spraying of the formulated test compound, each test unit was allowed to dry for 1 hour and then a black, screened cap was placed on top. The test units were held for 6 days in a growth chamber at 19-21° C. and 50-70% relative humidity. Each test unit was then visually assessed for insect mortality.

Data set [4] concerns cotton melon aphid (Aphis gossypii (Glover)). Nature of the data set: Test E: control of cotton melon aphid on sprayed okra plant. The following applies: 144 h, pre-infested, 6 days; for mortality at 2 ppm: sprayed at 2 ppm; for mortality at 50 ppm: sprayed at 50 ppm; for mortality at 250 ppm: sprayed at 250 ppm; for mortality at 10 ppm: sprayed at 10 ppm. Here is the method: as §1
For evaluating control of cotton melon aphid (Aphis gossypii (Glover)) through contact and/or systemic means, the test unit consisted of a small open container with a 5-day-old okra plant inside. This was pre-infested with 30-40 insects on a piece of leaf according to the cut-leaf method, and the soil of the test unit was covered with a layer of sand.
Test compounds were formulated and sprayed at 250, 50, 10 and 2 ppm. After spraying, the test units were maintained in a growth chamber for 6 days at 19° C. and 70% relative humidity. Each test unit was then visually assessed for insect mortality.

In data set [5] the test system is Potato Leafhopper (Empoasca fabae (Harris)). Nature of the data set: Test C: control of Potato Leafhopper on sprayed bean plant. The following applies: 144 h, adults, 6 days; for mortality at 250 ppm: sprayed at 250 ppm. Here is the method:
as §1
For evaluating control of Potato Leafhopper (Empoasca fabae (Harris)) through contact and/or systemic means, the test unit consisted of a small open container with a 5-6-day-old bean plant inside. White sand was added to the top of the soil, and one of the primary leaves was excised prior to application of the test compound.
Test compounds were formulated and sprayed at 250 and 50 ppm. After spraying of the formulated test compound, the test units were allowed to dry for 1 hour before they were post-infested with 5 potato leafhoppers (18-to-21-day-old adults). A black, screened cap was placed on the top of the test unit, and the test units were held for 6 days in a growth chamber at 20° C. and 70% relative humidity. Each test unit was then visually assessed for insect mortality.

For data set [6], the system named is Neotropical Brown Stink Bug (Euschistus heros (Fab)). Description: Test H: control of Neotropical Brown Stink Bug on sprayed green bean pieces. The conditions noted are these: sprayed at 250 ppm; 3rd instar nymphs; 5 days. The method, then: as §1
For evaluating control of Neotropical Brown Stink Bug (Euschistus heros (Fab)) through contact and/or systemic means, the test unit consisted of a petri dish with two, ˜2 cm pieces of green bean inside.
Test compounds were formulated and sprayed at 250, 50 and 10 ppm. After spraying of the formulated test compound, the test units were allowed to dry for 1 h before they were post-infested with 10 3rd instar nymphs. A fine mesh screen was secured to the petri dish, the test units were held for 5 days in a growth chamber at 28° C. and 65% relative humidity. Each test unit was then visually assessed for insect mortality after five days.

In the case of `COCC#CCn1ncc(-c2ccc(C(F)(F)F)cc2)n1` [Compound 299], the mortality at 250 ppm in data set [1] is no less than 50%.

`CCC#CCn1nnc(-c2cc(F)cc(F)c2)n1` [Compound 65, 5-(3,5-difluorophenyl)-2-(2-pentyn-1-yl)-2H-tetrazole]: the mortality at 50 ppm in data set [2] and in data set [3] was no less than 80% throughout. This molecule also yielded a mortality at 2 ppm in data set [4] of no less than 80%. The molecule further showed a mortality at 250 ppm in data set [1] of no less than 50%.

On to `CCC#CCn1nnc(-c2ccc(F)cc2)n1` [Compound 41, 5-(4-fluorophenyl)-2-(2-pentyn-1-yl)-2H-tetrazole], for which the mortality at 10 ppm in data set [2] was no less than 80%. In addition, the mortality at 250 ppm was no less than 80% in data set [3] and no less than 50% in data set [1]. Besides, in data set [4], the mortality at 50 ppm is no less than 80%.

Regarding `CCC#CCn1ncc(-c2ccc(F)nc2)n1` [Compound 159, 2-Fluoro-5-[2-(2-pentyn-1-yl)-2H-1,2,3-triazol-4-yl]pyridine], the mortality at 50 ppm in data set [2] and in data set [4] was no less than 80% in each case. In data set [5], this molecule had a mortality at 250 ppm of no less than 80%.

As to `CCC#CCn1ncc(-c2ccc(Cl)cn2)n1` [Compound 141], the mortality at 250 ppm in data set [3] and in data set [4] was no less than 80% throughout. The mortality at 50 ppm in data set [1] was no less than 50%.

Take `CCC#CCn1nnc(-c2ccc(C(F)(F)F)c(Br)c2)n1` [Compound 325, 5-[3-Bromo-4-(trifluoromethyl)phenyl]-2-(2-pentyn-1-yl)-2H-tetrazole]: the mortality at 250 ppm in data set [2] was no less than 80%. Also, the values for the mortality at 50 ppm in data set [3], in data set [4] and in data set [1] were no less than 80%, no less than 80% and no less than 50%, respectively.

Molecule `CCC#CCn1cc(-c2ccc(F)nc2)nn1` [Compound 158] returned a mortality at 50 ppm in data set [5] (sprayed at 50 ppm) of no less than 80%. Also, the mortality at 250 ppm in data set [4] was no less than 80%.

As to `CCC#CCn1nnc(-c2ccc(OC(F)F)cc2)n1` [Compound 311, 5-[4-(Difluoromethoxy)phenyl]-2-(2-pentyn-1-yl)-2H-tetrazole], the figures for the mortality at 50 ppm in data set [2], in data set [4] and in data set [1] were no less than 80%, no less than 80% and no less than 50%, respectively.

In the case of `CCC#CCn1ncc(-c2cncc(F)c2)n1` [Compound 155], the mortality at 50 ppm in data set [2] and in data set [4] was no less than 80% throughout. In addition, the mortality at 250 ppm in data set [5] and in data set [3] was no less than 80% throughout.

Consider `CCC#CCn1ncc(-c2ccc(Cl)nc2)n1` [Compound 157], for which the mortality at 50 ppm in data set [2] and in data set [4] was no less than 80% throughout. Besides, the mortality at 250 ppm in data set [3] is no less than 80%; in data set [1], no less than 50%.

For `CCC#CCn1nnc(-c2ccc3occc3c2)n1` [Compound 193, 5-(5-Benzofuranyl)-2-(2-pentyn-1-yl)-2H-tetrazole], the mortality at 50 ppm in data set [2] and in data set [4] was no less than 80% throughout. Also, the mortality at 250 ppm is no less than 80% in data set [3] and no less than 50% in data set [1].

Regarding `COCC#CCn1nnc(-c2ccc(C(F)(F)F)cc2)n1` [Compound 300], the mortality at 250 ppm was no less than 80% in data set [4] and no less than 50% in data set [1].

`CCC#CCn1nnc(-c2cc(OC)cc(C(F)(F)F)c2)n1` [Compound 286, 5-[3-Methoxy-5-(trifluoromethyl)phenyl]-2-(2-pentyn-1-yl)-2H-tetrazole] returned a mortality at 250 ppm in data set [2] of no less than 80%. For the same molecule, the mortality at 50 ppm in data set [4] is no less than 80%; in data set [1], no less than 50%.

As to `CCC#CCn1nnc(-n2cc(Cl)cn2)n1` [Compound 306], the values for the mortality at 250 ppm in data set [2], in data set [3] and in data set [1] were no less than 80%, no less than 80% and no less than 50%, respectively. The molecule also yielded a mortality at 50 ppm in data set [4] of no less than 80%.

As for `CC(C)C#CCn1ncc(-c2ccc(C(F)(F)F)cc2)n1` [Compound 139], the mortality at 250 ppm in data set [2], in data set [5] and in data set [4] was no less than 80% in each case.

Regarding `CCC#CCn1nnc(-c2ccc(Br)c(Cl)c2)n1` [Compound 164, 5-(4-Bromo-3-chlorophenyl)-2-(2-pentyn-1-yl)-2H-tetrazole], the mortality at 250 ppm in data set [2] and in data set [3] was no less than 80% each time. Further, the mortality at 50 ppm in data set [4] is no less than 80%; in data set [1], no less than 50%.

For the molecule `CCC#CCn1ncc(-c2ccc(C(F)(F)F)nc2)n1` [Compound 126, 5-[2-(2-Pentyn-1-yl)-2H-1,2,3-triazol-4-yl]-2-(trifluoromethyl)pyridine], the mortality at 10 ppm in data set [2] and in data set [4] was no less than 80% throughout. In data set [3], the mortality at 50 ppm is no less than 80%.

On to `CCC#CCn1ncc(-c2cccc(C(F)(F)F)n2)n1` [Compound 213], for which the mortality at 250 ppm in data set [2] and in data set [3] was no less than 80% each time. The mortality at 50 ppm in data set [4] is no less than 80%.

On to `CCC#CCn1ncc(-c2ccc(C(F)(F)F)cc2)n1` [Compound 103, 2-(2-Pentyn-1-yl)-4-[4-(trifluoromethyl)phenyl]-2H-1,2,3-triazole], for which the mortality at 50 ppm in data set [2] and in data set [4] was no less than 80% throughout. Further, the mortality at 250 ppm in data set [5] is no less than 80%; in data set [3], no less than 80%; in data set [1] it was no less than 50%.

With `CCC#CCn1cc(-c2ccc(C)cc2)nn1` [Compound 18], in data set [6], the mortality result is “at least 50%”.

As to `CCC#CCn1nnc(-c2cc(F)c(F)c(F)c2)n1` [Compound 313, 2-(2-Pentyn-1-yl)-5-(3,4,5-trifluorophenyl)-2H-tetrazole], the mortality at 10 ppm in data set [2] was no less than 80%. For the same molecule, in data set [3], the mortality at 50 ppm is no less than 80%. The molecule also showed a mortality at 2 ppm in data set [4] of no less than 80%. The mortality at 250 ppm in data set [1] is no less than 50%.

In the case of `CCC#CCn1nnc(-c2ccc(Cl)c(F)c2)n1` [Compound 308, 5-(4-Chloro-3-fluorophenyl)-2-(2-pentyn-1-yl)-2H-tetrazole], the mortality at 250 ppm in data set [2] is no less than 80%. The mortality at 50 ppm in data set [3] was no less than 80%; in data set [1], no less than 50%. The mortality at 10 ppm in data set [4] was no less than 80%.
